Source: patent US20100317850A1 (priority 2008, published 2010)

These compounds were tested on Aβ42 production (assay: Quantification of Aβ peptide in culture of neurons from rat fetus brain (Aβ ELISA)). Settings: Neuron, 72 h; rat primary neuronal culture (cerebral cortex, embryonic day 18 Wistar rats); medium collected three days after addition of the compound; Aβx-42 ELISA; read-out: Aβ42 production reducing effect IC50.
Format: cell-based
Description: Quantification of Aβ Peptide in Culture of Neurons from Rat Fetus Brain
(1) Rat Primary Neuronal Culture
Primary neuronal cultures were prepared from the cerebral cortex of embryonic day 18 Wistar rats (Charles River Japan, Yokohama, Japan). Specifically, the embryos were aseptically removed from pregnant rats under ether anesthesia. The brain was isolated from the embryo and immersed in an ice-cold L-15 medium (such as Invitrogen Corp. Cat #11415-064, Carlsbad, Calif., USA, or SIGMA L1518). The cerebral cortex was collected from the isolated brain under a stereoscopic microscope. The cerebral cortex fragments collected were enzymatically treated in an enzyme solution containing 0.25% trypsin (Invitrogen Corp. Cat #15050-065, Carlsbad, Calif., USA) and 0.01% DNase (Sigma D5025, St. Louis, Mo., USA) at 37° C. for 30 minutes to disperse the cells. Here, the enzymatic reaction was stopped by adding inactivated horse serum to the solution. The enzymatically treated solution was centrifuged at 1,500 rpm for five minutes to remove the supernatant. 5 to 10 mL of a medium was added to the resulting cell mass. Neurobasal medium (Invitrogen Corp. Cat #21103-049, Carlsbad, Calif., USA) supplemented with 2% B27 supplement (Invitrogen Corp. Cat #17504-044, Carlsbad, Calif., USA), 25 μM 2-mercaptoethanol (2-ME, WAKO Cat #139-06861, Osaka, Japan), 0.5 mM L-glutamine (Invitrogen Corp. Cat #25030-081, Carlsbad, Calif., USA), and Antibiotics-Antimycotics (Invitrogen Corp. Cat #15240-062, Carlsbad, Calif., USA) was used as the medium (Neurobasal/B27/2-ME). However, the above Neurobasal medium not supplemented with 2-ME (Neurobasal/B27) was used for the assay. The cells were redispersed by mild pipetting of the cell mass to which the medium was added. The cell dispersion was filtered through a 40-μm nylon mesh (Cell Strainer, Cat #35-2340, Becton Dickinson Labware, Franklin Lakes, N.J., USA) to remove the remaining cell mass, and thus a neuronal cell suspension was obtained. The neuronal cell suspension was diluted with the medium and then plated in a volume of 100 μL/well at an initial cell density of 5×10^5 cells/cm^2 in a 96-well polystyrene culture plate pre-coated with poly-L or D-lysine (Falcon Cat #35-3075, Becton Dickinson Labware, Franklin Lakes, N.J., USA coated with poly-L-lysine using the method shown below, or BIOCOAT™ cell environments Poly-D-lysine cell ware 96-well plate, Cat #35-6461, Becton Dickinson Labware, Franklin Lakes, N.J., USA). Poly-L-lysine coating was carried out as follows. 100 μg/mL of a poly-L-lysine (SIGMA P2636, St. Louis, Mo., USA) solution was aseptically prepared with a 0.15 M borate buffer (pH 8.5). […] of the solution was added to the 96-well polystyrene culture plate and incubated at room temperature for one or more hours or at 4° C. overnight or longer. Thereafter, the coated 96-well polystyrene culture plate was washed with sterile water four or more times, and then dried or rinsed with, for example, sterile PBS or medium, and used for cell plating. The plated cells were cultured in the culture plate at 37° C. in 5% CO2-95% air for one day. Then, the total amount of the medium was replaced with a fresh Neurobasal™/B27/2-ME medium, and then the cells were cultured for further three days.
The drug was added to the culture plate on Day 4 of culture as follows. The total amount of the medium was removed from the wells, and 180 μL/well of Neurobasal medium not containing 2-ME and containing 2% B-27 (Neurobasal/B27) was added thereto. A solution of the test compound in dimethyl sulfoxide (hereinafter abbreviated as DMSO) was diluted with Neurobasal/B27 to a concentration 10-fold higher than the final concentration. 20 μL/well of the dilution was added to and sufficiently mixed with the medium. The final DMSO concentration was 1% or less. Only DMSO was added to the control group.
The cells were cultured for three days after addition of the compound, and the total amount of the medium was collected. […]

| Structure (SMILES) | IC50 [nM] |
| --- | --- |
| COc1ccc(NC(=O)c2ccc(Cl)cn2)cc1[C@]12CCC[C@H]1CSC(N)=N2 (racemic) [Example 34, (±)-N-[3-((4aR*,7aS*)-2-amino-4a,5,6,7-tetrahydro-4H-cyclopenta[d][1,3]thiazin-7a-yl)-4-methoxyphenyl]-5-chloropyridine-2-carboxamide] | 115 |
| NC1=N[C@@]2(c3cccc(-c4cccnc4F)c3)CN(c3ccccc3)C[C@H]2CS1 (racemic) [Example 36, (±)-(4aR,7aS)-7a-[3-(2-fluoro-pyridin-3-yl)phenyl]-6-phenyl-4,4a,5,6,7,7a-hexahydropyrrolo[3,4-d][1,3]thiazin-2-ylamine] | 384 |
| NC1=N[C@@]2(c3cccc(-c4cccnc4F)c3)CN(c3ncccn3)C[C@H]2CS1 (racemic) [Example 37, (±)-(4aR*,7aS*)-7a-[3-(2-fluoropyridin-3-yl)phenyl]-6-pyrimidin-2-yl-4,4a,5,6,7,7a-hexahydropyrrolo[3,4-d][1,3]thiazin-2-ylamine] | 29 |
| NC1=N[C@@]2(c3cc(NC(=O)c4ccc(Cl)cn4)ccc3OC(F)(F)F)CCOC[C@H]2CS1 (racemic) [Example 149] | 414 |
| N#Cc1ccc(C(=O)Nc2cc(F)cc([C@]34CCC[C@H]3CSC(N)=N4)c2)nc1 (racemic) [Example 158, (±)-N-[3-((4aR*,7aS*)-2-amino-4a,5,6,7-tetrahydro-4H-cyclopenta[d][1,3]thiazin-7a-yl)-5-fluorophenyl]-5-cyanopyridine-2-carboxamide] | 53 |
| NC1=N[C@@]2(c3cc(-c4cccnc4F)ccc3F)CCC[C@H]2CS1 (racemic) [Example 160, (±)-(4aR*,7aS*)-7a-[2-fluoro-5-(2-fluoropyridin-3-yl)phenyl]-4,4a,5,6,7,7a-hexahydrocyclopenta[d][1,3]thiazin-2-ylamine] | 521 |
| NC1=N[C@@]2(c3cccc(-c4cccnc4F)c3)CN(c3ccc(F)cc3)C[C@H]2CS1 (racemic) [Example 226, (±)-(4aR*,7aS*)-6-(4-fluorophenyl)-7a-[3-(2-fluoropyridin-3-yl)phenyl]-4,4a,5,6,7,7a-hexahydropyrrolo[3,4-d][1,3]thiazin-2-ylamine] | 233 |
| N#Cc1cccc(-c2cccc([C@]34CN(c5cnccn5)C[C@H]3CSC(N)=N4)c2)c1 (racemic) [Example 229, (±)-3′44aR*,7aS*)-2-amino-6-pyrazin-2-yl-4a,5,6,7-tetrahydro-4H-pyrrolo[3,4-d][1,3]thiazin-7a-yl)biphenyl-3-carbonitrile] | 544 |
| N#Cc1ccc(C(=O)Nc2cc(Cl)cc([C@]34CCC[C@H]3CSC(N)=N4)c2)nc1 (racemic) [Example 240, (±)-N-[3-((4aR*,7aS*)-2-amino-4a,5,6,7-tetrahydro-4H-cyclopenta[d][1,3]thiazin-7a-yl)-5-chlorophenyl]-5-cyanopyridine-2-carboxamide] | 39 |
| NC1=N[C@@]2(c3cc(-c4cccnc4F)c(F)cc3F)CCCC[C@H]2CS1 (racemic) [Example 245, (±)-(4aR*,8aS*)-8a-[2,4-difluoro-5-(2-fluoropyridin-3-yl)phenyl]-4a,5,6,7,8,8a-hexahydro-4H-benzo[d][1,3]thiazin-2-ylamine] | 1160 |
| NC1=N[C@@]2(c3cc(NC(=O)c4ccc(Cl)cn4)ccc3F)CCC[C@H]2CS1 (relative stereo) [Example 5, (+)-N-[3-((4aR*,7aS*)-2-amino-4a,5,6,7-tetrahydro-4H-cyclopenta[d][1,3]thiazin-7a-yl)-4-fluorophenyl]-5-chloropyridine-2-carboxamide] | 3 |
| NC1=N[C@@]2(c3cc(NC(=O)c4ccccn4)ccc3F)CCC[C@H]2CS1 (relative stereo) [Example 6, N-[3-((4aR*,7aS*)-2-amino-4a,5,6,7-tetrahydro-4H-cyclopenta[d][1,3]thiazin-7a-yl)-4-fluorophenyl]pyridine-2-carboxamide] | 88 |
